We go through twelve molecules from ChEMBL document CHEMBL4184107, “Structure based design of nicotinamide phosphoribosyltransferase (NAMPT) inhibitors from a phenotypic screen” (Bioorg Med Chem Lett, 2018).

Series [1] is described as follows: Clearance in mouse liver microsomes. The class given is ADME, microsome. The settings on record: read-out: CLH.
A short description of series [2]: Permeability of the compound by PAMPA. The class given is ADME.
Series [3] can be described thus: AUC in nude mouse at 10 mg/kg, po by HPLC-MS/MS analysis. It is filed as ADME, organism-based. The settings on record: in vivo.
Series [4] can be described thus: Clearance in nude mouse at 1 mg/kg, iv by HPLC-MS/MS analysis. The settings on record: in vivo. It is filed as ADME, organism-based.
Series [5] can be described thus: Volume of distribution at steady state in nude mouse at 1 mg/kg, iv by HPLC-MS/MS analysis. The class given is ADME, organism-based. Conditions: in vivo, read-out: Vdss.
Series [6] is described as follows: AUC in nude mouse at 1 mg/kg, iv by HPLC-MS/MS analysis. The class given is ADME, organism-based. Conditions: in vivo.
Series [7] in a line: Half life in nude mouse at 1 mg/kg, iv by HPLC-MS/MS analysis. It is filed as ADME, organism-based. The settings on record: in vivo.
Series [8] can be described thus: Oral bioavailability in nude mouse at 10 mg/kg by HPLC-MS/MS analysis. Conditions: in vivo. It is filed as ADME, organism-based.
The nature of series [9]: Cmax in nude mouse at 10 mg/kg, po by HPLC-MS/MS analysis. Also noted: dose 10 mg/kg, route oral. Conditions: in vivo. The class given is ADME, organism-based.
The nature of series [10]: Tmax in nude mouse at 10 mg/kg, po by HPLC-MS/MS analysis. It is filed as ADME, organism-based. The settings on record: in vivo.
Series [11] is described as follows: Half life in mouse microsomes. The class given is ADME, Microsome.
A short description of series [12]: Cmax in nude mouse at 15 mg/kg, po by HPLC-MS/MS analysis. The class given is ADME, organism-based. Also noted: dose 15 mg/kg, route oral. The settings on record: in vivo.
Series [13] is described as follows: Tmax in nude mouse at 15 mg/kg, po by HPLC-MS/MS analysis. The class given is ADME, organism-based. The settings on record: in vivo.
Series [14] can be described thus: AUC in nude mouse at 15 mg/kg, po by HPLC-MS/MS analysis. The class given is ADME, organism-based. Conditions: in vivo.

As to `COCC(=O)N[C@@H](C)c1ccc(NC(=O)[C@H]2C[C@@H]2c2cccnc2)cc1`, in series [1], the microsomal CLint came to 43.2 µL/min/mg. Further, the permeability entry in series [2] is “Impermeable”.
For `C[C@H](NC(=O)c1ccc(C#N)cc1)c1ccc(NC(=O)[C@H]2C[C@@H]2c2cccnc2)cc1`, the microsomal CLint in series [1] came to 53 µL/min/mg. The permeability result in series [2] is recorded as “Impermeable”.
In the same order, the values of `C[C@H](NC(=O)c1ccc(F)cc1)c1ccc(NC(=O)[C@H]2C[C@@H]2c2cccnc2)cc1` are 13.7 µL/min/mg and “Permeable”.
With `C[C@H](NC(=O)c1ccccc1)c1ccc(NC(=O)[C@H]2C[C@@H]2c2cccnc2)cc1`, the AUC in series [3] was 19.2 µM·h; in series [6], 6.18 µM·h. This molecule also came in with a clearance in series [4] of 6.8 mL/min/kg. Also, the microsomal CLint in series [1] is 148 µL/min/mg. Besides, the permeability entry in series [2] was “Permeable”. Besides, the Vd in series [5] was found to be 0.5 L/kg. In addition, the half-life in series [7] was 90 min. In addition, in series [8], the bioavailability was determined as 31%. The molecule further displayed a Cmax in series [9] of 12.7 µM. In addition, the Tmax in series [10] is 30 min.
`C[C@H](NC(=O)c1ccc(CN2CCOCC2)cc1)c1ccc(NC(=O)[C@H]2C[C@@H]2c2cccnc2)cc1` had a half-life in series [11] of 460 min. In series [2], the permeability result is reported as “Impermeable”.
`CCC(=O)N[C@@H](C)c1ccc(NC(=O)[C@H]2C[C@@H]2c2cccnc2)cc1` displayed a half-life in [11] of 2100 min. The permeability entry in [2] was “Impermeable”.
For the molecule `C[C@H](NC(=O)CC(F)(F)F)c1ccc(NC(=O)[C@H]2C[C@@H]2c2cccnc2)cc1`, the microsomal CLint in [1] came out at 83.7 µL/min/mg. For the same molecule, in [2], the permeability entry was “Impermeable”.
Turning to `C[C@H](NC(=O)C1CCOCC1)c1ccc(NC(=O)[C@H]2C[C@@H]2c2cccnc2)cc1`, the microsomal CLint in series [1] came out at 25.1 µL/min/mg. In [2], the permeability result is listed as “Impermeable”.
Molecule `O=C(NCc1ccc(S(=O)(=O)c2cccc(Cl)c2)cc1)c1cc2cnccc2[nH]1` came in with a Cmax in series [12] of 2070 nM. For the same molecule, the Tmax in [13] was 1 h. Moreover, the AUC in series [14] was determined as 9.2 µM·h.
In the case of `C[C@H](NC(=O)[C@@H]1CCCN1C)c1ccc(NC(=O)[C@H]2C[C@@H]2c2cccnc2)cc1`, in series [1], the microsomal CLint came out at 65.4 µL/min/mg. Moreover, in series [2], the permeability entry was “Permeable”.
On to `C[C@H](NC(=O)c1ncccn1)c1ccc(NC(=O)[C@H]2C[C@@H]2c2cccnc2)cc1`, for which, in [1], the microsomal CLint is 38.4 µL/min/mg. For the same molecule, the permeability result in series [2] is “Permeable”.
As to `C[C@H](NC(=O)c1ccccn1)c1ccc(NC(=O)[C@H]2C[C@@H]2c2cccnc2)cc1`, the microsomal CLint in [1] is less than 3.42 µL/min/mg. For the same molecule, the permeability entry in series [2] is “Permeable”.
